Measurements taken from US12714682B2, “Calixarene compounds and uses thereof” (UNIVERSITÄT WIEN, priority 2019, dated 2026).

Legend:
Osteopontin (OPN) = assay: 15N-1H HSQC NMR binding to osteopontin; conditions: HS compared with SCA-744
Method: In order to verify the predicted heparan sulfate mimicking activity of SCA-744, its physical interaction was probed with a prototypical HS-binding protein Osteopontin (OPN), a component of the extracellular matrix (ECM). To this end, NMR spectroscopy was used to directly probe the interaction and map the location of the interaction site along the protein backbone. The experimental strategy was as follows: First, ^15N-labelled OPN was prepared following well-established molecular biology technology techniques. Individual residue positions are directly monitored via the so-called ^15N-^1H Heteronuclear Single-Quantum Coherence (HSQC) spectroscopy, where individual cross peaks in the two-dimensional (2D) frequency spectrum corresponds to individual residue positions (amino acids) of the protein. Ligand binding changes the chemical environment of residues located in the binding site and leads to a change in the HSQC spectrum. Since the signal assignment is available, the residue positions which are affected by ligand binding can easily be identified by comparing HSQC spectra of the apo (ligand-free) and ligand-bound state of the protein (FIG. 7A). […] It is very convenient to analyze the chemical shift changes (induced by ligand binding) as a function of residue positions (FIG. 7B,C). Residues that display the largest chemical shift changes are typically part of the binding interface. […] Therefore, it can be concluded that SCA-744 and HS share the same ligand interaction sites and therefore are in competition for binding.

[1] = test system: THP-1 human monocytic cell line; assay: LPS-stimulated THP-1 macrophage cytokine production (LEGENDplex); type: cell-based; conditions: 10 ng/ml LPS; 30 and 150 μM; FIG. 3
Method: A specific anti-inflammatory effect or activity of a compound is proven, if the compound can decrease the production of one of IL-1B, IL-6 and TNFα in human THP1 macrophages following LPS stimulation, as determined by a standard assay: THP-1 human monocytic cell lines are treated with 100 nM of Phorbol 12-myristate 13-acetate (PMA) for 48 h to induce mature macrophage-like state. Cells are then stimulated with 100 ng/ml of LPS in the absence and presence of 500 μM of compound. After 6 hours, supernatants of treated and untreated cells are collected, and cytokine levels determined using the Human Inflammatory panel LEGENDplex Human Pro-inflammatory Chemokine Panel (Cat. No. 740118). A positive result is considered if the compound is capable of reduce or block the production of IL-1β, IL-6, and TNFα in human THP1 macrophages after LPS stimulation.
Following cells were treated with [10 ng/ml] LPS in the absence and presence 10, 100 and 500 μM of SCA-744. Cytokine levels were determined by LEGENDplex™ Human Inflammation Panel assay from BioLegend. The bar heights represent the concentration means compared to LPS alone of 3 independent experiments carried out in triplicates.
Cells were treated with 100 nM of Phorbol 12-myristate 13-acetate (PMA) for 48 h to induce mature macrophage-like state. Cells were then stimulated with 100 ng/ml of Lipopolysaccharides (LPS) in the absence and presence of 500 μM of SCA-744. After 6 hours, supernatants of treated and untreated cells were collected and the levels of three major pro-inflammatory cytokines TNF-α, IL-6 and IL-1ß were determined using the Human Inflammatory panel of LEGENDPLEX Multi-Analyte Flow assay.

[2] = Cytotoxicity, CellTiter-Glo cell viability; type: cell-based; conditions: human, HEK 293 cells (printed as HEK 293 neuroblastoma cell lines), 72 h treatment, read-out: EC50 cytotoxicity (cell viability, ATP)
Method: FIG. 19.: In-vitro assessment of SCA-744 (A) and SCA-754 (B) cytotoxicity. Experiments were performed using HEK 293 […] cell lines. The effect of SCA-744 and SCA-754 on cell viability was assessed using a standard ATP, CellTiter-Glo® Luminescent Cell Viability Assay following 72 hours treatment.
In vitro assessment of cytotoxicity of SCA-744 and SCA-754 in mammalian cells. 72 h following SCA-744 and SCA-754-treatment, cell viability was assessed using a standard ATP method, CellTiter-Glo® Luminescent Cell Viability Assay.

neuroblastoma cells = assay: Protection from MPP+ induced oxidative stress, CellTiter-Glo viability; type: cell-based; conditions: for protection from MPP+ induced apoptosis / damage: 0.1-1000 μM, 12 h
Method: Several in-vivo and in-vitro studies find that MPP+ exerts oxidative stress on cells^22. MPP+×toxicity is based on its uptake into dopaminergic neurons. MPP+ accumulate into the mitochondria, inhibiting the complex-I leading to ATP depletion, increased reactive oxygen species (ROS) production, and apoptotic cell death^23. 12 h following MPP+ treatment and SCA-744 and CAL-X incubation, cell viability was assessed using a standard ATP method, CellTiter-Glo® Luminescent Cell Viability Assay.

Compound	binding sites on OPN (chemical shift changes by residue) (Osteopontin (OPN))	inhibition of LPS-induced TNF-α, IL-ß and IL-6 [1]	EC50 at 72 h [2] [mM]	MPP+ protection relative to SCA-744 (neuroblastoma cells; 0.2 μM versus 1 μM) [× times]	protection from MPP+ induced apoptosis / damage (neuroblastoma cells)	protection from MPP+ induced apoptosis / damage (neuroblastoma cells; listed as CAL-X)	concentration for MPP+ protection (neuroblastoma cells; 12 h following MPP+ treatment, CellTiter-Glo) [µM]
heparan sulfate [HS, reference compound]	overlapping binding sites						
Cc1cc2c(O)c(c1)Cc1cc(S(=O)(=O)O)cc(c1O)Cc1cc(S(=O)(=O)O)cc(c1O)Cc1cc(S(=O)(=O)O)cc(c1O)C2 [SCA-754, Trisodium 25,26,27,28-tetrahydroxycalix(4)arene-23-methyl-5,11,17-trisulfonate]		Dose-dependent inhibition	1	5	protects against oxidative stress from MPP+ induced damage	protected neuroblastoma cells from MPP+ induced apoptosis	0.2
